In US9815878B2, “Use of PEDF-derived polypeptides for preventing and/or ameliorating skin aging” (MacKay Memorial Hospital, priority 2012, dated 2017):

What was measured:
UVB-induced wrinkles = UVB-induced wrinkles in nude mice, appearance photographed; assay type: in vivo; details: 8-week UVB, then ointment plus microneedle twice a week for 2 weeks; FIG. 4
Excerpt: Six-week-old female nude mice (BALB/cAnN.Cg-Foxn1nu/CrlNarl) were irradiated with ultraviolet B (UVB) on the back 5 times a week for an eight-week period using a bank of five UVB lamps (model XL-1000B, Spectrolinker™ apparatus; emission peak: 312 nm), placed about 20 cm above the backs of the animals. During the UVB exposure, the mice were allowed to move freely within the cage. The irradiation intensity represented as the minimal erythe al dose (MED) was set at 1 MED during the first 2 weeks (60 mJ/cm^2), and was progressively elevated to 2 MED (120 mJ/cm^2) in the 3rd-4th week, to 3 MED (180 mJ/cm^2) in the 5th-6th week, and to 4 MED (240 mJ/cm^2) during the 7th-8th weeks of the experiment. After the 8-week UVB exposure, animals developed noticeable wrinkles and were subsequently randomly divided into the following 4 groups, with 3 mice in each group. In the UVB/vehicle, UVB/29-mer, UVB/20-mer, and UVB/18-mer groups, 350 μl of ointment (containing DMSO, 29-mer, 20-mer or 18-mer PEDF) was applied to the dorsal skin and then transdermal delivery was achieved by punching the ointment treated skin with the microneedle patch. Also, mice that were not subjected to UVB radiation were used as control (Normal). The ointment/microneedle treatment was given twice a week for 2 weeks. Mice were intraperitoneally given BrdU and euthanized at 16 hours after the last treatment. Skin sections were stained for vimentin and BrdU. The level of BrdU- and vimentin-double positive cells was expressed as the percentage of BrdU- and vimentin-double positive cells per total vimentin-positive cells (the BrdU/Vimentin Labeling Index).
Formation of wrinkles is closely related to repetitive exposure to UVB irradiation. […] In this working example, we investigated the anti-wrinkle effect of present PEDF peptides in nude (i.e, hairless) mice. Wrinkles were induced by an eight-week UVB irradiation according to the procedure set forth in Example 3.3 above. […]

MMP-13 = test: UVB-induced MMP-13 mRNA expression in primary mouse dermal fibroblasts, RT-PCR; assay type: cell-based; details: for MMP-13 Expression Level (%): mRNA, Vehicle/UVB set to 100%; for effect on UVB-induced upregulation of MMP-13: cells pretreated with peptide
Procedure: (§1) Full-thickness skin tissue was obtained from the dorsum of C57BL/6 mouse. The subcutaneous tissue was carefully dissected from the skin and washed three times in sterile phosphate-buffered saline (PBS). The tissue was then cut into small pieces (1-2 mm^3). After being digested with 0.1% dispase at 4° C. overnight, the epidermal layers were removed, and the remaining dermal parts were further digested with 0.1% collagenase I at 37° C. for another 4 hours. The digested cells were then collected by centrifugation (400 g for 5 minutes) and resuspended in high-glucose DMEM supplemented with 10% FBS, 2 mM L-glutamine, and 1% penicillin-streptomycin antibiotic mixture. Cells were seeded onto tissue-culture plates (Falcon Labware; NJ, USA) at 1×10^3 cells/cm^2 and maintained at 37° C. with 5% CO2. After 24 hours, the medium was discarded to remove residual non-adherent cells, and cell culture was replenished with a fresh medium. For passage, near-confluent cells were harvested with 0.25% trypsin/EDTA.
The total RNA was extracted from cells using the TRIzol (Invitrogen) and treated with RNase-free DNase I (Qiagen, Santa Clarita, Calif.) to remove genomic DNA and then purified with an RNA purification kit (Dynabeads; Invitrogen). 1 μg of total RNA retrieved from primary dermal fibroblast was reverse-transcribed into cDNA by 200 units of expand Reverse-Transcriptase (Roche, Mannheim, Germany) in 20 μl of reaction buffer containing 0.25 μg of random primers and 0.8 mM dNTPs at 42° C. for 1 hour. 2 μl of the cDNA was used for the PCR reaction as templates. PCR was performed in a 30 μl volume containing 15 μl of EconoTaq® PLUS GREEN 2× Master Mix (Lucigen® Corp.), 1 μM of each primer and 2 μl of template DNA. cDNA was synthesized in an 18-22 cycle amplification reaction (denaturation, 20 s, 94° C.; annealing, 30 s, 57° C.; and polymerization, 40 s, 72° C.). The number of cycles for the primer set was chosen to be in the linear range of amplification. The sequences of specific PCR primers were mouse MMP-13 (accession number: NM_008607) sense, […] (SEQ ID NO: 12); antisense, […] (SEQ ID NO: 13); PCR product: 201 bp; and mouse glyceraldehyde 3-phosphate dehydrogenase (GAPDH; accession number: M32599) sense, […] (SEQ ID NO: 14); and anti-sense, […] (SEQ ID NO: 15); PCR product: 223 bp.). The PCR products were electrophoresed in a 2% agarose gel containing ethidium bromide and visualized by UV illumination. The intensities of the PCR products were quantified densitometrically using a FUJI LAS-3000 system and Multi Gauge Ver. 1.01 software (Fujifilm, Tokyo, Japan).
Primary mouse dermal fibroblasts in passage 2 of monolayer cultures were incubated with 1% FBS-DMEM supplemented with or without 100 nM PEDF peptide for 24 hours, and then subjected to UVB irradiation as described above. After UVB irradiation, PBS was replaced with 1% FBS-DMEM with or without PEDF peptide for further 24 hours, and then cellular total RNAs were extracted for subsequent RT-PCR analysis. The expression level of MMP-13 mRNA was normalized with the expression level in the Vehicle/UVB group (set to 100%), and quantitative results are summarized in Table 7.

[1] = tested on: primary mouse dermal fibroblasts; test: Dermal fibroblast proliferation in vitro, BrdU labeling assay; assay type: cell-based, C57BL/6 mouse; details: 24 hours; for BrdU/Vimentin Labeling Index (%): 50 nM peptide in 1% FBS medium, BrdU 2 hours
Procedure: as §1
After fixing with 4% paraformaldehyde, cells were exposed to cold methanol for 2 minutes, and then treated with 1 N HCl at room temperature for 1 hour before performing immunofluorescence staining.
BrdU-labeled DNA was detected by polyclonal anti-BrdU antibody and rhodamine-conjugated donkey anti-rabbit IgG. Nuclei were counterstained with Hoechst 33258 (blue).
Primary mouse dermal fibroblasts were isolated and cultured as described in the “Materials and Methods” section. The dermal fibroblast at passage 2 were seeded at gelatin-coated slide in a 6-well plate at a density of 2×10^5 cells per well and cultured in growth medium (DMEM 10% FBS) for 24 hours before being replaced by a basal growth medium with 1% FBS only (control group) or with 1% FBS plus an additional 50 nM of PEDF-derived peptide (i.e., 29-mer, 24-mer, 20-mer, 18-mer, Mo 29-mer, or Mo 20-mer) for 24 hours. For BrdU labeling assay, BrdU (final concentration, 10 μM) was added to the culture for 2 hours. The level of BrdU- and vimentin-double positive cells was expressed as the percentage of BrdU- and vimentin-double positive cells per total vimentin-positive cells (the BrdU/Vimentin Labeling Index), and the results were summarized in Table 2.

[2] = 100 nM peptide 24 h before and 24 h after UVB 15 mJ/cm^2

## EQRTESIIHRALYYDLIS [18-mer]
UVB-induced wrinkles
  wrinkle appearance after 2-week treatment: not capable of reducing the wrinkles
MMP-13; [2]
  MMP-13 Expression Level (%): 103.3 ± 7.8%
MMP-13
  effect on UVB-induced upregulation of MMP-13: unable to reduce the UVB-induced upregulation
[1]
  BrdU/Vimentin Labeling Index (%): 2.1 ± 0.61%
[1]; 50 nM peptide
  effect on dermal fibroblast proliferation in vitro: failed to elicit such effect

## Ac-SLGAEQRTESIIHRALYYDLISSPDIHGT-NH2 [29-mer]
UVB-induced wrinkles
  wrinkle appearance after 2-week treatment: wrinkle lines were fewer and finer
MMP-13; [2]
  MMP-13 Expression Level (%): 15.8 ± 1.8 %
MMP-13; 100 nM peptide, no UVB irradiation
  MMP-13 Expression Level (%): 4.8 ± 0.63%
MMP-13
  effect on UVB-induced upregulation of MMP-13: substantially reduced
[1]
  BrdU/Vimentin Labeling Index (%): 9.6 ± 1.6 %
[1]; 50 nM peptide
  proliferation relative to control medium: about 5 fold

## SLGAEQRTESIIHRALYYDL [20-mer, synthetic peptide corresponding to residues 93-112 of human PEDF]
UVB-induced wrinkles
  wrinkle appearance after 2-week treatment: wrinkle lines were fewer and finer
MMP-13; [2]
  MMP-13 Expression Level (%): 15.8 ± 3.3 %
MMP-13
  effect on UVB-induced upregulation of MMP-13: substantially reduced
[1]
  BrdU/Vimentin Labeling Index (%): 10.4 ± 2.3 %
[1]; 50 nM peptide
  proliferation relative to control medium: about 5 fold
